Measured values from publication PMC6093661, “Vitamin E hydroquinone is an endogenous regulator of ferroptosis via redox control of 15-lipoxygenase” (PLoS ONE, 2018).
“And” between values parts separate entries of the source, which are not always exact repeats. Identical values can stand only once. Like-named read-outs stand apart in the source and are kept apart here.

Legend:
[1] = target: T1, Rabbit 15-lipoxygenase (rLOX15) (Oryctolagus cuniculus, UniProt P12530); assay: Lipoxygenase enzyme inhibition assay; assay type: biochemical; settings: for inhibition of rabbit 15-LO enzyme activity: arachidonic acid as substrate, up to 100 μM; for IC50 / activity at 100 µM: rabbit 15-LO; for IC50: 50 μM arachidonic acid substrate; for activity at 100 µM: compound 100 μM, read-out: 15-Lipoxygenase Enzyme Assay % activity at 100 μM
T1 construct: purchased Enzo Life Sciences, Inc. BML-PL015
T1 sequence (P12530 1-663): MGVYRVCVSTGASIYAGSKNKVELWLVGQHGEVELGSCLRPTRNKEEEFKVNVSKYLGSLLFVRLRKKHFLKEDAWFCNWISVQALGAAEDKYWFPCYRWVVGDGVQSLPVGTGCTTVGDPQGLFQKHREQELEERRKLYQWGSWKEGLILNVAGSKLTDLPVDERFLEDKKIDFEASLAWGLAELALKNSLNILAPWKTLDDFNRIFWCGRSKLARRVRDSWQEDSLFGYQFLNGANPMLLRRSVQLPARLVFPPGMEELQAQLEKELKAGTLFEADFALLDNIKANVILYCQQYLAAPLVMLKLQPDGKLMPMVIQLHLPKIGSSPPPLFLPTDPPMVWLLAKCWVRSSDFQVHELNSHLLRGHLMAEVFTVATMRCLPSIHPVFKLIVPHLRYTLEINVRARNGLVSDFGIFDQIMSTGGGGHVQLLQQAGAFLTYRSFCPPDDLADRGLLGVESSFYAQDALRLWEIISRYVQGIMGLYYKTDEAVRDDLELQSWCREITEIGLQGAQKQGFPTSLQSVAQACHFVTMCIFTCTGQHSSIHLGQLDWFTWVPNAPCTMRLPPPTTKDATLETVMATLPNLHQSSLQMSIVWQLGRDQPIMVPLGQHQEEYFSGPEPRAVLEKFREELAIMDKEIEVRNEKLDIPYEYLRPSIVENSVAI
Description: Rabbit 15-lipoxygenase (rLOX15, part number BML-PL015, lot number 3-P9009a) was obtained from Enzo Life Sciences, Inc. Sodium cholate (part number C6445, lot number 094K0209) was obtained from Sigma-Aldrich.
Stock solutions of test compounds were prepared in DMSO and then diluted to final assay concentrations in cholate mix such that final cholate and DMSO concentrations were maintained at 0.2%.

[2] = system: 15-HETE release from Q7 cells; assay: Targeted arachidonate metabolite release cellular assay (RSL3-treated Q7 cells); assay type: cell-based, mouse
Description: Ferroptosis was initiated by RSL3 (2 μM final concentration) in Q7 cells as described above. The protective activity of co-treated compounds was assessed also as described above. Four to five hours after RSL3 treatment, the conditioned medium was collected into 1.2-mL cluster tubes containing ice-cold acetonitrile at a ratio of 1:2. Tubes were snap frozen on dry ice and stored at -80°C.
Prior to analysis, samples were thawed on wet ice and then vortexed briefly. Samples were centrifuged at 4000 rpm for 15min at 4°C. Supernatant (40 μL) was transferred to a 96-well injection plate and 10 μL of both internal standard and HPLC grade water were added. A Shimadzu Nexera MP system coupled to a Sciex 6500 Qtrap and configured for micro-flow was used to analyze all samples. Samples were maintained at 4°C in the Nexera MP autosampler for the duration of the analytical run.
A Thermo Gold-C8 column (1.9 μm, 1.0 x 100 mm) operated at 45°C was used for chromatographic separation. The total run time of the liquid chromatography method was 10 min. Mobile phase A consisted of water with 0.1% formic acid. Mobile phase B was composed of 0.1% formic acid in 3:1 acetonitrile:isopropyl alcohol. Gradient elution was employed, with mobile phase B being ramped from 5% at 0min, to 50% at 2 min, and finally 98% at 7.5 min. Electrospray conditions for the μLC-ESI-MS/MS method were optimized for a flow rate of 125 μL/min and were as follows: Ion spray voltage was set to -4500 V, temperature of 250°C, curtain gas of 20, CAD gas of 10, and ion source gas 1 and 2 of 20 and 40 psi, respectively. Analyzer parameters were optimized for each compound using a combination of manual tuning and compound optimization. The following MRM transitions were used to quantify concentrations of 15-HETE, 12-HETE and Arachidonic Acid (AA). 15-HETE: 319→219; 12-HETE: 319→179; AA: 303→259.

[3] = ORAC (oxygen radical absorbance capacity) assay; settings: average of 25 and 12.5 μM compound; mean, SEM, n = 6
Description: ORAC assay kits were purchased from Cell Biolabs. Assays were performed per the manufacturer’s instructions for lipophilic samples with minor modifications. DMSO stock solutions of compounds were diluted in an anaerobic glovebox to final concentrations of 25 and 12.5 μM in triplicate. A standard curve of Trolox® between 0–100 μM in triplicate per concentration was also generated on each assay plate. Diluted compounds and standards were removed from the glovebox and reactions initiated by addition of aerobic fluorescein reagent and radical initiator. Fluorescein fluorescence was monitored at excitation wavelength of 480 nm and emission wavelength of 520 nm every minute for one hour. AUC analysis was performed as described in the kit protocol. The “Trolox equivalents” at each concentration of test compound were calculated and the average Trolox equivalents at the two compound concentrations are presented. The errors were determined by propagating errors from the SEMs of the triplicate determinations to the averages across the two triplicate determinations.

[4] = system: Mouse striatal Q7 cells (STHdhQ7/Q7); assay: RSL3 ferroptosis cell rescue (cellular survival assay, CellTiter-Glo)
[5] = system: Q7 cells; settings: mouse
[6] = system: Q7 cells; assay: Intracellular quantification of αT, αTQ and αTHQ in Q7 cells (LC-MS/MS, succinate capping); settings: αTQ 10 μM, 24 h
[7] = Radical-trapping antioxidant (RTA) activity assay in DOPC liposomes; settings: for Radical Trapping Assay AUC (Rel. Control): 50 μM compound, 2 mol% in DOPC liposomes, BODIPY 581/591 C11 quenching, liposome-only control = 1
[8] = system: Q7 cells; assay: Cellular lipid oxidation assay (BODIPY 581/591 C11, RSL3-treated Q7 cells); assay type: cell-based, mouse; settings: RSL3 2 μM, 6-point titration, time-lapse microscopy
Description: Ferroptosis was induced by RSL3 (2 μM final concentration) in Q7 cells as described above. The protective activity of co-treated compounds was assessed also as described above. The rate of cellular lipid oxidation after GPX4 inhibition was assessed by monitoring the time-dependent changes in green fluorescence of cells pre-labeled with BODIPY™ 581/591 C11 dye (5 μM, 30-minute labeling period; Thermo Fisher/Invitrogen) using the IncuCyte S3 live-cell imaging apparatus (Sartorius) using a 10x objective. Cells (three images per field; at least three replicate wells per condition) were imaged once hourly for up to 18 hours after compound and RSL3 addition. Quantification of cell images was performed using the IncuCyte Zoom software using the Basic Analyzer tool which utilized an algorithm that calculated the total green-positive area per well where “green-positive” was defined as 1.45 times the local background-subtracted fluorescent signal. After a 2-3-hour lag period post-RSL3 treatment, the cellular green fluorescence signal began increasing. The rate of change in total green-positive area per well from 3–9 hours post-compound treatment was calculated, then expressed relative to that observed in the RSL3-only control treatment group, which was defined as 100%.

[9] = system: Q7 cells; assay: Cellular quantification of αTCC in Q7 cells (LC-MS/MS, succinate capping); assay type: in vitro ADME, mouse; settings: 6 technical replicates in each of 4 experiments
Description: Due to poor ionization of αTCC, the succinate capping method was used for quantification of the succinate ester derivative formed by cell lysis with 100 mg/mL succinic anhydride in 95:5 (acetonitrile:triethylamine).
Q7 cells were cultured in standard culture medium for 18 hours prior to compound addition. After the specified treatment time, the culture medium was removed and adherent cells were washed with PBS. The wash was removed and adherent cells were harvested by adding 1 mL of 100 mg/mL succinic anhydride in 95:5 (acetonitrile:triethylamine) followed by immediate cell scrapping. After cell scrapping, samples were transferred to a 1.5 mL Eppendorf tube, vortexed for 15 seconds, and kept on wet ice until all samples were harvested. […]
Samples were analyzed using a developed method on a Shimadzu 30AD using micro-flow with a Shimadzu SIL-30AC autosampler, and coupled to an AB Sciex 6500+ QTRAP mass spectrometer. […] Analyzer parameters were optimized for each compound using a combination of manual tuning and compound optimization. αTCC was measured as αTCC-succinate. […]
A Phenomenex Kinetex C18 (2.1 x 50 mm, 1.3 µm) column using a reverse phase gradient mobile phase method was used for chromatographic separation. […] Data were analyzed using Sciex Analyst Chromatography software, version 1.6.2 and Sciex MultiQuant software. […]

[10] = Mus musculus, 18 h, read-out: RSL3 Ferroptosis Cell Assay Average EC50, Q7 cells, RSL3 2 μM, 18 h co-treatment, CellTiter-Glo 2.0

SMILES | inhibition of rabbit 15-LO enzyme activity [1] | IC50 [1] | activity at 100 µM [1] | IC50 ([2]; Mus musculus, RSL3 2 μM, conditioned medium 4-5 h, read-out: IC50 for RSL3-induced cellular release of 15-HETE) | effect on 12-HETE levels ([2]; RSL3, compound 5 μM) | effect on cellular or released AA levels ([2]; RSL3, compound 5 μM) | effect on RSL3-dependent induction of cellular and released 15-HETE ([2]; compound 5 μM) | ORAC Antioxidant Activity Assay Trolox Equiv. [3] | EC50 [4, 10] | fold more potent than αT in preventing ferroptotic cell death ([4]; Q7 cells, RSL3, EC50 ratio vs αT) | EC50 ([4]; read-out: RSL3 Ferroptosis Cell Assay Average EC50, Q7 cells, RSL3 2 μM, 18 h co-treatment, CellTiter-Glo 2.0) | fold increase in cellular αTHQ after αTQ supplementation [5] | fold increase in cellular αTQ after αTQ supplementation [5] | cellular exposure of αT after αTQ supplementation (back-conversion) [6] | cellular αTQ exposure after αTQ supplementation [6] | Radical Trapping Assay AUC (Rel. Control) [7] | effect on RSL3-induced lipid oxidation (BODIPY 581/591 C11 oxidation) [8] | rescue at 30 μM ([4]; Q7 cells, RSL3 2 μM, 30 μM highest concentration tested, mean ± SD, N = 7) | cellular exposure of αTCC [9] | RTA AUC fold greater than αTQ and αTHQ ([7]; DOPC liposomes, AUC relative to liposome only control)
CC1=C(C)C(=O)C(CC[C@](C)(O)CCC[C@H](C)CCC[C@H](C)CCCC(C)C)=C(C)C1=O [αTQ, α-tocopherol quinone] | did not | > 100000 nM | 75% | 600 nM | not altered | no effect | inhibited | 0.044 Trolox Equiv. | 233 nM | 22 fold | 230 ± 100 nM | > 600 fold | > 300 fold | unaffected | over 250 μM | 1.217 | prevented | – | – | –
Cc1c(C)c2c(c(C)c1O)CCC(C)(CCCC(C)CCCC(C)CCCC(C)C)C2 (centres unmarked) [αTCC, 1,3,4,6-Tetramethyl-6-(4,8,12-trimethyltridecyl)-5,6,7,8-tetrahydronaphthalen-2-ol] | did not | > 100000 nM | 77% | – | – | – | – | 0.075 Trolox Equiv. and 0.075 ± 0.008 Trolox Equiv. | > 30000 nM | – | – | – | – | – | – | 4.706 | – | 42 ± 21% | > 50 µM | 2.5–4 fold
